# Calls of active or inactive are those of the source.
# How the values were obtained:
# [1] = Luminescence Cell-Based Dose Retest to Confirm Inhibitors of Cancer Stem Cells. [Related pubchem assays (depositor defined):AID2717, AID2721]; format: functional; conditions: Homo sapiens
# [2] = molecular target: T1, Rac GTPase-activating protein 1 (Homo sapiens, UniProt Q9H0H5); test: MgcRacGAP GTPase-activating activity inhibitors, confirmation, biochemical, ADP Hunter fluorescence, primary and confirmatory (AID 624330); format: functional
# T1 sequence (Q9H0H5 whole entry): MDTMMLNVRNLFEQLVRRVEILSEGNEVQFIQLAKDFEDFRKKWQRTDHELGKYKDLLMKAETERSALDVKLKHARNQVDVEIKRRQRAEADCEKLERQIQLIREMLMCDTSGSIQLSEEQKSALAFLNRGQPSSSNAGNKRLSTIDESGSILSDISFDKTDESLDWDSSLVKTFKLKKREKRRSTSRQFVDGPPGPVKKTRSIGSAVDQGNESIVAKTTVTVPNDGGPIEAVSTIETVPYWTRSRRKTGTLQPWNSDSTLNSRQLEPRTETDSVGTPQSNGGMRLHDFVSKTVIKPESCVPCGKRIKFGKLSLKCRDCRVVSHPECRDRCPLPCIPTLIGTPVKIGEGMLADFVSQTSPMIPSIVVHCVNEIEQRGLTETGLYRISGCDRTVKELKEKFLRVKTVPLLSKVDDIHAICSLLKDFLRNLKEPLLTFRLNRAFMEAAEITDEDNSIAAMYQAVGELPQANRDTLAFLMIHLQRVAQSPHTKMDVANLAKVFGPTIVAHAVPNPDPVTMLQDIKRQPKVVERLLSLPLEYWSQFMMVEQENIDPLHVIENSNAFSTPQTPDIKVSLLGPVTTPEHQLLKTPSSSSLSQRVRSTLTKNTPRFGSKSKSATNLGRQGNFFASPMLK
# Cytochrome P450 2C19 = Cytochrome P450 2C19 (Homo sapiens, UniProt P33261); test: Cytochrome panel assay with activity outcomes. Panel member name: p450-cyp2c19 Compounds with AC50 equal or less than 10 uM are considered active; format: functional
# Cytochrome P450 3A4 = Cytochrome P450 3A4 (Homo sapiens, UniProt P08684);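 note: CYP3A4 tested as one member of a cytochrome P450 panel screen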
# [3] = HEp-2 cell cytotoxicity, dose response, cytotoxicity control for RSV inhibitor project, HTS (AID 2410); format: functional; conditions: human respiratory syncytial virus
# [4] = Luminescence Cell-Based Dose Confirmation HTS to Identify Activators of 5'UTR Stem-Loop Driven Alpha-Synuclein mRNA Translation in H4 Neuroglioblastoma Cells. [Related pubchem assays: 1829 (Project Summary), 1814 (Primary HTS)]; format: functional
# H4 = test: Luminescence Cell-Based Dose Response HTS to Identify Activators of 5'UTR Stem-Loop Driven Prion Protein mRNA Translation in H4 Neuroglioblastoma Cells. [Related pubchem assays: 1829 (Project Summary), 1814 (Primary HTS)]; format: functional; conditions: Homo sapiens
# [5] = Luminescence Cell-Based Dose Response HTS to Identify Activators of Luciferase Translation or Activity in H4 […] Cells. [Related pubchem assays: 1829 (Project Summary), 1814 (Primary HTS)]; format: functional
# Cytochrome P450 1A2 = molecular target: T2, Cytochrome P450 1A2 (Homo sapiens, UniProt P05177);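 note: PubChem cytochrome P450 panel assay, CYP1A2 panel member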
# T2 sequence (P05177 whole entry): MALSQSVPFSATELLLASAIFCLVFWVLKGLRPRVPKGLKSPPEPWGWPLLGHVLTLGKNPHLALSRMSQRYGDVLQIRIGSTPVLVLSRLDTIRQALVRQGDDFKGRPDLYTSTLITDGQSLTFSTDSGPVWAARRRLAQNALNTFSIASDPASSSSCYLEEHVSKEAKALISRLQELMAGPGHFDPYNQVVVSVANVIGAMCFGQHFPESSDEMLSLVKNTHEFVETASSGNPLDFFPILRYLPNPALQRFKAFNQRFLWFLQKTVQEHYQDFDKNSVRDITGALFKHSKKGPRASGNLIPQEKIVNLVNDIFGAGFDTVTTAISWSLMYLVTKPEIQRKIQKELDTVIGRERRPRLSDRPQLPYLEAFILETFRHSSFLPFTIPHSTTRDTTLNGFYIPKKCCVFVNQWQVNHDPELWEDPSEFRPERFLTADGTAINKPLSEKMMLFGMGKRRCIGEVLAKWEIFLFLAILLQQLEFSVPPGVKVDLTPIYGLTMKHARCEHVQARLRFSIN
# [6] = inhibitors of intracellular T. cruzi replication, confirmation, NIH3T3 host cells, beta-gal luminescence (AID 2044); format: functional, cell-based;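 note: intracellular parasites grown in NIH/3T3 mouse fibroblasts as host cells; luminescent beta-galactosidase reporter signal from transgenic T. cruzi replicating inside host cells; inhibitors lower the luminescence signal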
# [7] = cytotoxicity toward NIH3T3 fibroblasts, dose response, counter-screen, cell-based, ATP luminescence, mouse fibroblasts (AID 2010); format: functional;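 note: cells exposed to compound for about 90 hours before reading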
# [8] = molecular target: T3, Corticotropin-releasing factor receptor 2/Corticotropin-releasing factor-binding protein (Homo sapiens, UniProt P24387+Q13324); test: activators of CRF receptor 2 with binding protein – uHTS hits, confirmation (AID 602473); format: functional; conditions: read-out: EC50_Mean
# T3 sequence (Q13324 whole entry): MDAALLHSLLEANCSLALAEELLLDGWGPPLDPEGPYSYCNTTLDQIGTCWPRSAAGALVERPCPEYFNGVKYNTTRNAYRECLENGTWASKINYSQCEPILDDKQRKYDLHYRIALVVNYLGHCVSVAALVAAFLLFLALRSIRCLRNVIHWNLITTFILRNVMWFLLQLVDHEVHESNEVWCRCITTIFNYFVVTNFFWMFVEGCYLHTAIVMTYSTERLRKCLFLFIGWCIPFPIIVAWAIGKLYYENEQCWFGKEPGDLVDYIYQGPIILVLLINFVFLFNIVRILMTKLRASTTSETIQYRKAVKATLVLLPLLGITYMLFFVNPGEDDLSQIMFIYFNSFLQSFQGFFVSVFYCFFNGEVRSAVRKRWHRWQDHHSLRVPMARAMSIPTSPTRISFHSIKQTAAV
# T3 sequence (P24387 whole entry): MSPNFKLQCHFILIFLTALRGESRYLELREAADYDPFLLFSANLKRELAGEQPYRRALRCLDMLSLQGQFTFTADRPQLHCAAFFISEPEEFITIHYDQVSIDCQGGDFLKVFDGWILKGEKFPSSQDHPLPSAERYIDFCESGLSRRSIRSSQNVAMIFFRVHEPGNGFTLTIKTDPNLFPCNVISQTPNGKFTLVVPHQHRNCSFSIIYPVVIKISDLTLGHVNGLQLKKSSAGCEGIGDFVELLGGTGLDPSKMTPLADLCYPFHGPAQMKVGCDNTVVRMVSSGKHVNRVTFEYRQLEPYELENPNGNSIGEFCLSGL
# Streptococcus = test: Group A Streptococcus viability loss, dose response, counter-screen for streptokinase expression inhibitor project, luminescence, BacTiterGlo (AID 1915); format: functional, organism-based;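 note: potency for reduction of bacterial viability or growth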
# [9] = tested on: Streptococcus sp. 'group A'; test: growth inhibition of control SK(-) GAS strain, dose response, counter-screen for streptokinase expression inhibitor project, luminescence, kanamycin, BacTiterGlo, confirmation (AID 1900); format: functional, organism-based
# Chain of Cytochrome P450 2C19 (P33261 whole entry): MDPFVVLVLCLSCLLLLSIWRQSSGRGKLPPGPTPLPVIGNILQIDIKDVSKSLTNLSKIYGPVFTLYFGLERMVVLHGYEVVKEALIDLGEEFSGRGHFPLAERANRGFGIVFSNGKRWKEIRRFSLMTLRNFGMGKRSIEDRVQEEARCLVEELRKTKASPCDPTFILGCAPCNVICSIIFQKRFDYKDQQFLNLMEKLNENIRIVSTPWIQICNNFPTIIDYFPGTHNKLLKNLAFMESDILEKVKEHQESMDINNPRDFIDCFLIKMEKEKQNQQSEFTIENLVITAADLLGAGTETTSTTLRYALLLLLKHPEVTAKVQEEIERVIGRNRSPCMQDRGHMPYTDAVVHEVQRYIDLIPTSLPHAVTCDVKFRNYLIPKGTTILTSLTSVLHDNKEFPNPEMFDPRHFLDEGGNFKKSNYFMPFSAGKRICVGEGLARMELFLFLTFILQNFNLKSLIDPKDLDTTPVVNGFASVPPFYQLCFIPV
# Chain of Cytochrome P450 3A4 (P08684 whole entry): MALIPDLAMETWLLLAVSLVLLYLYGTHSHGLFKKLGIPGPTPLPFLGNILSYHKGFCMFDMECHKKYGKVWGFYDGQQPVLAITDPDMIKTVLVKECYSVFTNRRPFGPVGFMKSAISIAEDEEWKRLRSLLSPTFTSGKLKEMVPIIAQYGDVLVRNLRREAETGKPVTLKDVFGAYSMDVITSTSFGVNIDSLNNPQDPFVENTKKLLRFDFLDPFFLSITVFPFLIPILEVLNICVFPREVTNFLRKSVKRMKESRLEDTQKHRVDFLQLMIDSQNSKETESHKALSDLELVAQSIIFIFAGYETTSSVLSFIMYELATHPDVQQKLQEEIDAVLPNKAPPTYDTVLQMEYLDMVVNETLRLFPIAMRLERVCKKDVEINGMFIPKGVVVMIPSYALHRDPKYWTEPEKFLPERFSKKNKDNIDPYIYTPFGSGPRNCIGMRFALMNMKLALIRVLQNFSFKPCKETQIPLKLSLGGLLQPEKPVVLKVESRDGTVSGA
smiles,measurement,setting,value
Cc1nnc(-c2ccc(Oc3ccc(Cl)cc3)c([N+](=O)[O-])c2)o1,AC50,[1],< 0.16 µM (active)
CCOc1cc(/C=C2\C(=O)N(Cc3ccco3)C(C)=C2C(=O)OC)ccc1O,IC50,[2],69.9 µM (active)
CCc1ccccc1OC[C@@H](O)CN[C@H]1CCCc2ccccc21,AC50,Cytochrome P450 2C19; read-out: AC50,2 µM (inconclusive)
CCNC(=O)CSc1nnc(C2CC2)n1-c1ccccc1,AC50,Cytochrome P450 3A4,28.2 µM (inconclusive)
same,AC50,Cytochrome P450 2C19; read-out: AC50,22.4 µM (inconclusive)
COc1ccc(/C=C2\CCCC3C2=NN(C(=O)c2ccco2)C3c2ccc(OC)c(OC)c2)cc1OC (centres undefined),AC50,Cytochrome P450 2C19; read-out: AC50,31.6 µM (inconclusive)
CN(C)C(=O)Oc1cc(OC(=O)N(C)C)cc([C@@H](O)CNC(C)(C)C)c1,AC50,Cytochrome P450 2C19,inconclusive
CCOc1ccc(Cl)cc1CNCCNCCO.Cl,AC50,Cytochrome P450 2C19,inconclusive
COc1ccc(Cc2nc3ccc(C(=O)NCCc4cccc(C)n4)cc3o2)cc1,CC50,[3],19.7 µM (active)
Cc1ccc(NC(=O)c2ccc(NCCCN3CCOCC3)c([N+](=O)[O-])c2)cc1Cl,CC50,[3],12.8 µM (active)
Cc1cccc(N(C)Cc2nnc(-c3cccc(Br)c3)o2)c1,CC50,[3],33.1 µM (active)
C=C1CCO[C@@]2([C@H](O)[C@@](C)(O)CO)NC(=O)[C@]1(O)NC2=O,AC50,Cytochrome P450 2C19,inconclusive
Cc1cnn(CCC(=O)NN=C(S)Nc2ccc(F)cc2)c1,AC50,Cytochrome P450 3A4,17.8 µM (inconclusive)
same,AC50,Cytochrome P450 2C19; read-out: AC50,17.8 µM (inconclusive)
COC(=O)[C@H](CCSC)NC(=O)NCc1ccccc1F,AC50,Cytochrome P450 2C19; read-out: AC50,0.0158 µM (inconclusive)
CS(=O)(=O)N1CCN(C2C3CC4CC(C3)CC2C4)CC1 (centres undefined),IC50,[2],152 µM (active)
Oc1ccc2ccccc2c1Br,IC50,[2],20.3 µM (active)
Cc1nn(-c2ccc3ccccc3c2)c(=O)c2ccccc12,EC50,[4],< 0.1 µM (active)
same,EC50,H4,29.7 µM (active)
same,EC50,[5],0.213 µM (active)
O=C1OC(c2ccccc2)=N/C1=C\N1CCCCC1,EC50,[4],0.176 µM (active)
same,EC50,H4,> 120 µM (not active)
same,EC50,[5],0.374 µM (active)
COCCn1c(=O)c(-c2cccc(C#N)c2)nc2cnc(Oc3ccc(OC)cc3)nc21,AC50,Cytochrome P450 2C19; read-out: AC50,39.8 µM (inconclusive)
same,AC50,Cytochrome P450 1A2,12.6 µM (inconclusive)
COC(=O)c1cccc(Nc2cc(C)nc(-c3ccccc3O)n2)c1,EC50,[6],2.74 µM (active)
same,AC50,[1],1.75 µM (active)
same,EC50,[7],7.5 µM (active)
Cc1ccc(S(=O)(=O)N[C@H](C(=O)OCC(=O)N2N=C(c3ccc(Cl)cc3)CC2c2ccco2)C(C)C)cc1 (some centres undefined),CC50,[3],> 50 µM (active)
same,EC50,[8],> 53 µM (inactive)
COc1ccc(-c2cn(CCc3c[nH]c4ccccc34)nn2)cc1,AC50,[1],2.86 µM (active)
O=C(CN1CCN(c2ncccn2)CC1)N1CCCC1,IC50,[2],176 µM (active)
CC1CCN(c2nc(-c3cccnc3)nc3scc(-c4ccccc4)c23)CC1,AC50,[1],1.36 µM (active)
Cc1ccc(C)c(Cc2c(C)nc3c(C(=O)NCc4ccc5c(c4)OCO5)cnn3c2C)c1,EC50,[6],1.61 µM (active)
same,AC50,[1],4.98 µM (active)
same,EC50,[7],> 60 µM (not active)
CCCCCn1cc[n+](C2=C([N-]S(=O)(=O)c3ccc(Br)cc3)C(=O)c3ccccc3C2=O)c1,EC50,Streptococcus,6.33 µM (active)
same,EC50,[9],4.17 µM (active)
Cc1cc(C)c2nc(N3CCCC(C(=O)N4CCN(c5ncccn5)CC4)C3)sc2c1 (centres undefined),AC50,[1],5.98 µM (active)
Cc1ccc(C(=O)Nc2cc(C(C)C)c(O)c(C(C)C)c2)cc1,CC50,[3],32 µM (active)
O=C(/C=C/c1ccccc1)OCCNC1=NS(=O)(=O)c2ccccc21,CC50,[3],36.4 µM (active)
CCOC(=O)c1ccc2[nH]c3c(c2c1)CCCC3NC=O (centres undefined),CC50,[3],36 µM (active)
Nc1c(-c2ccccc2)cnn1-c1cccc(C(F)(F)F)c1,EC50,[4],0.538 µM (active)
same,EC50,H4,8 µM (active)
same,EC50,[5],56.7 µM (active)
COc1ccc(Oc2ncc3nc(-c4ccccc4)c(=O)n(C4CC4)c3n2)cc1,AC50,Cytochrome P450 2C19; read-out: AC50,31.6 µM (inconclusive)
C=C[C@@H]1c2cc(C)ccc2N(S(=O)(=O)c2ccc(C)cc2)[C@H](c2ccc(OC(C)=O)cc2)C1(C#N)C#N,AC50,[1],0.804 µM (active)
COc1ccc(CCNC(=O)Cn2cnc3c2c(=O)n(C)c(=O)n3C)cc1OC,AC50,Cytochrome P450 2C19,inconclusive
same,AC50,Cytochrome P450 1A2,3.16 µM (inconclusive)
Cc1cccc(NC(=O)CSc2nnnn2C)n1,AC50,Cytochrome P450 2C19; read-out: AC50,39.8 µM (inconclusive)
CN(C)/N=C/C=C1\CCC/C(=C\c2ccc(F)c(F)c2)C1=O,AC50,[1],8.22 µM (active)
COc1cc(/C=N/Nc2nc(C)cc(O)n2)ccc1O,IC50,[2],23.9 µM (active)
CCOc1cc(/C=N/N2CCN(Cc3ccccc3)CC2)ccc1O,IC50,[2],86.7 µM (active)
CCCn1c(=O)c(C(=O)N/N=C/c2ccc(F)cc2)c(O)c2ccccc21,EC50,Streptococcus,3.31 µM (active)
same,EC50,[9],1.99 µM (active)
O/N=C1\CCCc2ccc(Cl)cc21,CC50,[3],19.5 µM (active)
C/C(=N\NC(=O)c1ccccc1C)c1ccc(NC(=O)c2cccs2)cc1,AC50,Cytochrome P450 2C19; read-out: AC50,31.6 µM (inconclusive)
same,AC50,Cytochrome P450 1A2,22.4 µM (inconclusive)
CCCCNCC(O)(c1ccc(Cl)cc1)c1ccc(Cl)cc1,CC50,[3],7.11 µM (active)

# From ChEMBL document CHEMBL1201862, “PubChem BioAssay data set” (2004)
